Measurements as given in patent US20020064511A1, “Water-soluble polymers for the reduction of dietary phosphate or oxalate absorption” (priority 1996, published 2002).

Test: Complexation of phosphate in NaH2PO4 solution, Centricon 30 filtrate phosphorus by ICP
Assay type: binding
Protocol: In each of four tubes, 0.54 mL of this solution (0.19 mmol of monomer units) were mixed with 10 mL of 0.0207 M NaH2PO4 and appropriate amounts of HCl and NaOH to make solutions of pH 3, pH 4.5, pH 6, and pH 7.5. Tubes with the same pH were also prepared with 10 mL of 0.0207 M NaH2PO4and 0.50 mL of 1.5 M CaCO, (0.749 mmol). Control tubes were also prepared with the sodium phosphate solution and the adjustment of pH. All tubes were diluted to 12 mL with water. The tubes were agitated for one hour. The solutions were then placed in separate Centricon™ 30 molecular weight cutoff tubes and centrifuged for 30 minutes. The filtrate collected was analyzed for phosphorus by inductively coupled plasma spectroscopy.
In each of four tubes, 0.67 mL of this solution (0.18 mmol of monomer units) were mixed with 10 mL of 0.0207 M NaH2PO4 and appropriate amounts of HCl and NaOH to make solutions of pH 3, pH 4.5, pH 6, and pH 7.5. Tubes with the same pH were also prepared with 10 mL of 0.0207 M NaH2PO4 and 0.50 mL of 1.5 M CaCO3 (0.749 mmol). Control tubes were also prepared with the sodium phosphate solution and the adjustment of pH. All tubes were diluted to 12 mL with water. The tubes were agitated for one hour. The solutions were then placed in separate Centricon™ 30 molecular weight cutoff tubes and centrifuged for 30 minutes. The filtrate collected was analyzed for phosphorus by inductively coupled plasma spectroscopy.

Compound O=C([O-])[O-].[Ca+2] [calcium carbonate] has a phosphorus removed (pH 3, 10 mL 0.0207 M NaH2PO4, one hour) of 16%, a phosphorus removed (pH 4.5, 10 mL 0.0207 M NaH2PO4, one hour) of 13% and a phosphorus removed (pH 6, 10 mL 0.0207 M NaH2PO4, one hour) of 9%. For the same compound, the phosphorus removed (pH 7.5, 10 mL 0.0207 M NaH2PO4, one hour) was 7%.
